Results published in PubChem BioAssay AID2060350 (Molecular Pharmacology Branch, DTP, NCI, 2025).
“And” between values parts separate entries of the source, which are not always exact repeats. Equal values may be shown once.

Test system: PDC 521955-158-R6-J3 spheroids, viability
Assay: Anticancer human tumor 521955-158-R6-J3-PDC patient-derived pancreatic carcinoma cell line growth inhibition [TAK]
Conditions: spheroids with HUVEC and MSC; for viability, T/C: stronger effect = lower value
Summary of the method: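 Tumor cells were grown as spheroids with HUVEC and hMSC (60:25:15) and treated with targeted agents combined with TAK-243 or ipatasertib. Drugs were tested in half-log steps down from near the clinical Cmax, or from 10 microM where Cmax was unknown.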

[1] = curve of first compound, second compound 0.3 µM
[2] = curve of first compound, second compound 0.949 µM
[3] = curve of first compound, second compound 3 µM
[4] = curve of first compound, second compound 9.49 µM
[5] = curve of first compound, second compound 30 µM
[6] = second compound 0.3 µM, first compound 0.000316 µM
[7] = second compound 0.3 µM, first compound 0.001 µM
[8] = second compound 0.3 µM, first compound 0.00316 µM
[9] = second compound 0.3 µM, first compound 0.01 µM
[10] = second compound 0.3 µM, first compound 0.0316 µM
[11] = second compound 0.3 µM, first compound 0.1 µM
[12] = second compound 0.949 µM, first compound 0.000316 µM
[13] = second compound 0.949 µM, first compound 0.001 µM
[14] = second compound 0.949 µM, first compound 0.00316 µM
[15] = second compound 0.949 µM, first compound 0.01 µM
[16] = second compound 0.949 µM, first compound 0.0316 µM
[17] = second compound 0.949 µM, first compound 0.1 µM
[18] = second compound 3 µM, first compound 0.000316 µM
[19] = second compound 3 µM, first compound 0.001 µM
[20] = second compound 3 µM, first compound 0.00316 µM
[21] = second compound 3 µM, first compound 0.01 µM
[22] = second compound 3 µM, first compound 0.0316 µM
[23] = second compound 3 µM, first compound 0.1 µM
[24] = second compound 9.49 µM, first compound 0.000316 µM
[25] = second compound 9.49 µM, first compound 0.001 µM
[26] = second compound 9.49 µM, first compound 0.00316 µM
[27] = second compound 9.49 µM, first compound 0.01 µM
[28] = second compound 9.49 µM, first compound 0.0316 µM
[29] = second compound 9.49 µM, first compound 0.1 µM
[30] = second compound 30 µM, first compound 0.000316 µM
[31] = second compound 30 µM, first compound 0.001 µM
[32] = second compound 30 µM, first compound 0.00316 µM
[33] = second compound 30 µM, first compound 0.01 µM
[34] = second compound 30 µM, first compound 0.0316 µM
[35] = second compound 30 µM, first compound 0.1 µM
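Note: spheroids exposed to drugs for 7 days before readout.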
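Throughout, for viability, T/C: 100% = DMSO vehicle control viability.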

## COC1CC2CCC(C)C(O)(O2)C(=O)C(=O)N2CCCCC2C(=O)OC(C(C)CC2CCC(OCCO)C(OC)C2)CC(=O)C(C)C=C(C)C(O)C(OC)C(=O)C(C)CC(C)C=CC=CC=C1C (configuration not stated) + CC(C)NCC(C(=O)N1CCN(c2ncnc3c2C(C)CC3O)CC1)c1ccc(Cl)cc1
[1]
  IC50: > 100 nM
[2]
  IC50: > 100 nM
[3]
  IC50: > 100 nM
[4]
  IC50: > 100 nM
[5]
  IC50: > 100 nM
[6]
  viability, T/C: 98.5%
[7]
  viability, T/C: 93%
[8]
  viability, T/C: 97%
[9]
  viability, T/C: 96.4%
[10]
  viability, T/C: 102%
[11]
  viability, T/C: 81.1%
[12]
  viability, T/C: 95.8%
[13]
  viability, T/C: 89.6%
[14]
  viability, T/C: 99.1%
[15]
  viability, T/C: 102%
[16]
  viability, T/C: 91.3%
[17]
  viability, T/C: 78%
[18]
  viability, T/C: 96.5%
[19]
  viability, T/C: 78.3%
[20]
  viability, T/C: 85.8%
[21]
  viability, T/C: 89.1%
[22]
  viability, T/C: 73.7%
[23]
  viability, T/C: 63.3%
[24]
  viability, T/C: 86.2%
[25]
  viability, T/C: 67.7%
[26]
  viability, T/C: 65%
[27]
  viability, T/C: 74.8%
[28]
  viability, T/C: 76.8%
[29]
  viability, T/C: 58.4%
[30]
  viability, T/C: 81.8%
[31]
  viability, T/C: 59.6%
[32]
  viability, T/C: 55.9%
[33]
  viability, T/C: 62.8%
[34]
  viability, T/C: 56%
[35]
  viability, T/C: 48.4%

## CC(C)n1nc(-c2ccc3oc(N)nc3c2)c2c(N)ncnc21 + CC(C)NCC(C(=O)N1CCN(c2ncnc3c2C(C)CC3O)CC1)c1ccc(Cl)cc1
[1]
  IC50: > 100 nM
[2]
  IC50: 49.5 nM
[3]
  IC50: 24 nM
[4]
  IC50: 16.3 nM
[5]
  IC50: 6.44 nM
[6]
  viability, T/C: 83.2%
[7]
  viability, T/C: 85%
[8]
  viability, T/C: 87.1%
[9]
  viability, T/C: 80.5%
[10]
  viability, T/C: 70.3%
[11]
  viability, T/C: 54.1%
[12]
  viability, T/C: 70.3%
[13]
  viability, T/C: 74.7%
[14]
  viability, T/C: 71.9%
[15]
  viability, T/C: 77%
[16]
  viability, T/C: 56.3%
[17]
  viability, T/C: 40.2%
[18]
  viability, T/C: 75.6%
[19]
  viability, T/C: 76.8%
[20]
  viability, T/C: 70%
[21]
  viability, T/C: 66.8%
[22]
  viability, T/C: 44.6%
[23]
  viability, T/C: 29.8%
[24]
  viability, T/C: 64%
[25]
  viability, T/C: 67.3%
[26]
  viability, T/C: 73.9%
[27]
  viability, T/C: 55%
[28]
  viability, T/C: 40.3%
[29]
  viability, T/C: 26.4%
[30]
  viability, T/C: 63.2%
[31]
  viability, T/C: 62.5%
[32]
  viability, T/C: 54.5%
[33]
  viability, T/C: 47.4%
[34]
  viability, T/C: 33.4%
[35]
  viability, T/C: 23.9%

## CCCS(=O)(=O)Nc1ccc(F)c(C(=O)c2c[nH]c3ncc(-c4ccc(Cl)cc4)cc23)c1F + CC(C)NCC(C(=O)N1CCN(c2ncnc3c2C(C)CC3O)CC1)c1ccc(Cl)cc1
[1]
  IC50: > 100000 nM
[2]
  IC50: > 100000 nM
[3]
  IC50: 64000 nM
[4]
  IC50: 60100 nM
[5]
  IC50: 21800 nM
Second compound 0.3 µM, first compound 0.316 µM
  viability, T/C: 143%
Second compound 0.3 µM, first compound 1 µM
  viability, T/C: 89.8%
Second compound 0.3 µM, first compound 3.16 µM
  viability, T/C: 96.1%
Second compound 0.3 µM, first compound 10 µM
  viability, T/C: 92.2%
Second compound 0.3 µM, first compound 31.6 µM
  viability, T/C: 79.8%
Second compound 0.3 µM, first compound 100 µM
  viability, T/C: 176%
Second compound 0.949 µM, first compound 0.316 µM
  viability, T/C: 98.1%
Second compound 0.949 µM, first compound 1 µM
  viability, T/C: 108%
Second compound 0.949 µM, first compound 3.16 µM
  viability, T/C: 80.6%
Second compound 0.949 µM, first compound 10 µM
  viability, T/C: 128%
Second compound 0.949 µM, first compound 31.6 µM
  viability, T/C: 79.5%
Second compound 0.949 µM, first compound 100 µM
  viability, T/C: 159%
Second compound 3 µM, first compound 0.316 µM
  viability, T/C: 93.3%
Second compound 3 µM, first compound 1 µM
  viability, T/C: 97.5%
Second compound 3 µM, first compound 3.16 µM
  viability, T/C: 81%
Second compound 3 µM, first compound 10 µM
  viability, T/C: 97.4%
Second compound 3 µM, first compound 31.6 µM
  viability, T/C: 66.6%
Second compound 3 µM, first compound 100 µM
  viability, T/C: 39.5%
Second compound 9.49 µM, first compound 0.316 µM
  viability, T/C: 94.8%
Second compound 9.49 µM, first compound 1 µM
  viability, T/C: 98.5%
Second compound 9.49 µM, first compound 3.16 µM
  viability, T/C: 78.5%
Second compound 9.49 µM, first compound 10 µM
  viability, T/C: 88.9%
Second compound 9.49 µM, first compound 31.6 µM
  viability, T/C: 87.4%
Second compound 9.49 µM, first compound 100 µM
  viability, T/C: 20.4%
Second compound 30 µM, first compound 0.316 µM
  viability, T/C: 106%
Second compound 30 µM, first compound 1 µM
  viability, T/C: 108%
Second compound 30 µM, first compound 3.16 µM
  viability, T/C: 132%
Second compound 30 µM, first compound 10 µM
  viability, T/C: 99.8%
Second compound 30 µM, first compound 31.6 µM
  viability, T/C: 20.2%
Second compound 30 µM, first compound 100 µM
  viability, T/C: 7.85%

## CCCS(=O)(=O)Nc1ccc(F)c(C(=O)c2c[nH]c3ncc(-c4ccc(Cl)cc4)cc23)c1F
Compound 0.316 µM
  viability, T/C: 92.9% and 82.9%
Compound 1 µM
  viability, T/C: 101% and 67%
Compound 3.16 µM
  viability, T/C: 88.1% and 85%
Compound 10 µM
  viability, T/C: 101% and 75%
Compound 31.6 µM
  viability, T/C: 109% and 51.8%
Compound 100 µM
  viability, T/C: 99.2% and 114%
Curve of compound
  IC50: > 100000 nM
